Source: patent US20230365553A1, “COMPOUNDS AND COMPOSITIONS FOR TREATING CONDITIONS ASSOCIATED WITH STING ACTIVITY” (IFM Due, Inc., priority 2020, published 2023)

Molecular target: T1, STING (Homo sapiens, UniProt Q86WV6, G230A/H232R/R293Q/R71H)
T1 construct: host or cells: THP1-Dual KO-IFNAR2 cells
Test: STING reporter assay: luciferase reporter activity in THP1-Dual KO-IFNAR2 cells stimulated with 2′3′cGAMP
Format: cell-based
Conditions: 15 μM 2′3′cGAMP, 24h, read-out: hSTING EC50
Procedure: STING pathway activation by the compounds described herein was measured using THP 1-Dual™ cells (KO-IFNAR2).
THP1-Dual™ KO-IFNAR2 Cells (obtained from invivogen) were maintained in RPMI, 10% FCS, 5 ml P/S, 2 mM L-glut, 10 mM Hepes, and 1 mM sodium pyruvate. Compounds were spotted in empty 384 well tissue culture plates (Greiner 781182) by Echo for a final concentration of 0.0017-100 μM. Cells were plated into the TC plates at 40 μL per well, 2×10E6 cells/mL. For activation with STING ligand, 2′3′cGAMP (MW 718.38, obtained from Invivogen), was prepared in Optimem media.
The following solutions were prepared for each 1×384 plate: • Solution A: 2 mL Optimem with one of the following stimuli: • 60 μL of 10 mM 2′3′cGAMP→150 μM stock • Solution B: 2 mL Optimem with 60 μL Lipofectamine 2000→Incubate 5 min at RT
2 mL of solution A and 2 ml Solution B was mixed and incubated for 20 min at room temperature (RT). 20 μL of transfection solution (A+B) was added on top of the plated cells, with a final 2′3′cGAMP concentration of 15 μM. The plates were then centrifuged immediately at 340 g for 1 minute, after which they were incubated at 37° C., 5% CO2, >98% humidity for 24h. Luciferase reporter activity was then measured. EC50 values were calculated by using standard methods known in the art.
Luciferase reporter assay: 10 μL of supernatant from the assay was transferred to white 384-plate with flat bottom and squared wells. One pouch of QUANTI-Luc™ Plus was dissolved in 25 mL of water. 100 μL of QLC Stabilizer per 25 mL of QUANTI-Luc™ Plus solution was added. 50 μL of QUANTI-Luc™ Plus/QLC solution per well was then added. Luminescence was measured on a Platereader (e.g., Spectramax I3X (Molecular Devices GF3637001)).
Luciferase reporter activity was then measured. EC50 values were calculated by using standard methods known in the art.

T1 sequence (Q86WV6 whole entry R71H/G230A/H232R/R293Q): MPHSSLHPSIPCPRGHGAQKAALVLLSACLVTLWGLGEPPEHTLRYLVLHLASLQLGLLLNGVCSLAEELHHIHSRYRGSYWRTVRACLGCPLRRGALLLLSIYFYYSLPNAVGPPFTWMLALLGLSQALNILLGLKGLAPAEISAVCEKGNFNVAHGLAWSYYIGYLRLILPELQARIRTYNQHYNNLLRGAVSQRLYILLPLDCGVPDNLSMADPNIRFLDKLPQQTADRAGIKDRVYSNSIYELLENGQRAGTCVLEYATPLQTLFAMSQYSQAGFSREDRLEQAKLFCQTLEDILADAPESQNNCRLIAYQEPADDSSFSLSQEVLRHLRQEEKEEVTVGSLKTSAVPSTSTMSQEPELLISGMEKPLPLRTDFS

Row | Structure (SMILES) | EC50 [µM]
1 | CN1CCC(C(=O)Nc2c[nH]c3ccc(-c4cnn(-c5ccc(C(F)(F)F)cc5)c4)cc23)CC1=O (stereo not shown) [Compound 231, 1-methyl-2-oxo-N-(5-(1-(4-(trifluoromethyl)phenyl)-1H-pyrazol-4-yl)-1H-indol-3-yl)piperidine-4-carboxamide] | 1 to 5
2 | O=C(Nc1c[nH]c2ccc(-c3cnn(-c4ccc(C(F)(F)F)cc4)c3)cc12)C1(O)CCCCC1 [Compound 187, 1-hydroxy-N-(5-(1-(4-(trifluoromethyl)phenyl)-1H-pyrazol-4-yl)-1H-indol-3-yl)cyclohexane-1-carboxamide] | 0.2 to 1
3 | CCC(=O)Nc1c[nH]c2ccc(-c3cnn(-c4ccc(C(F)(F)F)cn4)c3)cc12 [Compound 105, N-(5-(1-(5-(trifluoromethyl)pyridin-2-yl)-1H-pyrazol-4-yl)-1H-indol-3-yl)propionamide] | 0.2 to 1
4 | O=C(Nc1c[nH]c2ccc(-c3cnn(-c4ccc(C(F)(F)F)cc4)c3)cc12)C1CS(=O)(=O)C1 [Compound 213, N-(5-(1-(4-(trifluoromethyl)phenyl)-1H-pyrazol-4-yl)-1H-indol-3-yl)thietane-3-carboxamide 1,1-dioxide] | 0.2 to 1
5 | CCC(=O)Nc1c[nH]c2ccc(-c3ccc(C4(C#N)CC4)cc3)cc12 [Compound 144, N-(5-(4-(1-cyanocyclopropyl)phenyl)-1H-indol-3-yl)propionamide] | 5 to 100
6 | COCC(=O)Nc1c[nH]c2ccc(-c3cnn(-c4ccc(C(F)(F)F)cc4)c3)cc12 [Compound 174, 2-methoxy-N-(5-(1-(4-(trifluoromethyl)phenyl)-1H-pyrazol-4-yl)-1H-indol-3-yl)acetamide] | 0.2 to 1
7 | CCC(C)(O)C(=O)Nc1c[nH]c2ccc(-c3cnn(-c4ccc(C(F)(F)F)cc4)c3)cc12 (stereo not shown) [Compound 200, 2-hydroxy-2-methyl-N-(5-(1-(4-(trifluoromethyl)phenyl)-1H-pyrazol-4-yl)-1H-indol-3-yl)butanamide] | 1 to 5
8 | CCC(=O)Nc1c[nH]c2ccc(-c3cccc(C4CC4)c3)cc12 [Compound 146, N-(5-(3-cyclopropylphenyl)-1H-indol-3-yl)propionamide] | 1 to 5
9 | COC(C)C(=O)Nc1c[nH]c2ccc(-c3cnn(-c4ccc(C(F)(F)F)cc4)c3)cc12 (stereo not shown) [Compound 227, 2-methoxy-N-(5-(1-(4-(trifluoromethyl)phenyl)-1H-pyrazol-4-yl)-1H-indol-3-yl)propanamide] | 1 to 5
10 | CC1(C(=O)Nc2c[nH]c3ccc(-c4cnn(-c5ccc(C(F)(F)F)cc5)c4)cc23)CCCO1 (stereo not shown) [Compound 203, 2-methyl-N-(5-(1-(4-(trifluoromethyl)phenyl)-1H-pyrazol-4-yl)-1H-indol-3-yl)tetrahydrofuran-2-carboxamide] | 5 to 100
11 | O=C(Nc1c[nH]c2ccc(-c3cnn(-c4ccc(C(F)(F)F)cc4)c3)cc12)C1(O)CCCC1 [Compound 186, 1-hydroxy-N-(5-(1-(4-(trifluoromethyl)phenyl)-1H-pyrazol-4-yl)-1H-indol-3-yl)cyclopentane-1-carboxamide] | 0.2 to 1
12 | O=C(Nc1c[nH]c2ccc(-c3cnn(-c4ccc(C(F)(F)F)cc4)c3)cc12)C1(F)CCOCC1 [Compound 233, 4-fluoro-N-(5-(1-(4-(trifluoromethyl)phenyl)-1H-pyrazol-4-yl)-1H-indol-3-yl)tetrahydro-2H-pyran-4-carboxamide] | 0.2 to 1
13 | CC(=O)Nc1c[nH]c2ccc(-c3cnn(-c4ccc(F)c(F)c4)c3)cc12 [Compound 170, N-(5-(1-(3,4-difluorophenyl)-1H-pyrazol-4-yl)-1H-indol-3-yl)acetamide] | 1 to 5
14 | CCc1ccc(-n2cc(-c3ccc4[nH]cc(NC(=O)C5CCC5)c4c3)cn2)cc1 [Compound 124, N-(5-(1-(4-ethylphenyl)-1H-pyrazol-4-yl)-1H-indol-3-yl)cyclobutanecarboxamide] | 0.04 to 0.2
15 | O=C(Nc1c[nH]c2ccc(-c3cnn(-c4ccc(C(F)(F)F)cc4)c3)cc12)c1ccon1 [Compound 280, N-(5-(1-(4-(trifluoromethyl)phenyl)-1H-pyrazol-4-yl)-1H-indol-3-yl)isoxazole-3-carboxamide] | 0.2 to 1
16 | O=C(Nc1c[nH]c2ccc(-c3cnn(-c4ccc(C(F)(F)F)cc4)c3)cc12)c1ncco1 [Compound 272, N-(5-(1-(4-(trifluoromethyl)phenyl)-1H-pyrazol-4-yl)-1H-indol-3-yl)oxazole-2-carboxamide] | 1 to 5

Row | Structure (SMILES) | EC50 [µM]
17 | CC(=O)N(C)c1c[nH]c2ccc(-c3cnn(-c4ccc(C(F)(F)F)cc4)c3)cc12 [Compound 246, N-methyl-N-(5-(1-(4-(trifluoromethyl)phenyl)-1H-pyrazol-4-yl)-1H-indol-3-yl)acetamide] | 5 to 100
18 | CC(C)CC(C)(N)C(=O)Nc1c[nH]c2ccc(-c3cnn(-c4ccc(C(F)(F)F)cc4)c3)cc12 (stereo not shown) [Compound 182, 2-amino-2,4-dimethyl-N-(5-(1-(4-(trifluoromethyl)phenyl)-1H-pyrazol-4-yl)-1H-indol-3-yl)pentanamide] | 5 to 100
19 | O=C(Nc1c[nH]c2ccc(-c3cnn(-c4ccc(C(F)(F)F)cc4)c3)cc12)C1CCC1 [Compound 111, N-(5-(1-(4-(trifluoromethyl)phenyl)-1H-pyrazol-4-yl)-1H-indol-3-yl)cyclobutanecarboxamide] | 0.2 to 1
20 | O=C(Nc1c[nH]c2ccc(-c3cnn(-c4ccc(C(F)(F)F)cc4)c3)cc12)c1cnn[nH]1 [Compound 261, N-(5-(1-(4-(trifluoromethyl)phenyl)-1H-pyrazol-4-yl)-1H-indol-3-yl)-1H-1,2,3-triazole-5-carboxamide] | 1 to 5
21 | O=C(Nc1c[nH]c2ccc(-c3cnn(-c4ccc(C(F)(F)F)cc4)c3)cc12)C1CN(CC(F)(F)F)C1 [Compound 247, 1-(2,2,2-trifluoroethyl)-N-(5-(1-(4-(trifluoromethyl)phenyl)-1H-pyrazol-4-yl)-1H-indol-3-yl)azetidine-3-carboxamide] | 0.2 to 1
22 | CC(=O)NC(C)(C)C(=O)Nc1c[nH]c2ccc(-c3cnn(-c4ccc(C(F)(F)F)cc4)c3)cc12 [Compound 181, 2-acetamido-2-methyl-N-(5-(1-(4-(trifluoromethyl)phenyl)-1H-pyrazol-4-yl)-1H-indol-3-yl)propanamide] | 5 to 100
23 | CCC(=O)Nc1c[nH]c2ccc(-c3cnn(-c4ccc(CC)cc4)c3)nc12 [Compound 164, N-(5-(1-(4-ethylphenyl)-1H-pyrazol-4-yl)-1H-pyrrolo[3,2-b]pyridin-3-yl)propionamide] | 5 to 100
24 | O=C1CCC[C@@H](C(=O)Nc2c[nH]c3ccc(-c4cnn(-c5ccc(C(F)(F)F)cc5)c4)cc23)N1 [Compound 221, (S)-6-oxo-N-(5-(1-(4-(trifluoromethyl)phenyl)-1H-pyrazol-4-yl)-1H-indol-3-yl)piperidine-2-carboxamide] | 1 to 5
25 | CC(=O)Nc1c[nH]c2ccc(-c3cnn(Cc4cccc(C(F)(F)F)c4)c3)cc12 [Compound 180, N-(5-(1-(3-(trifluoromethyl)benzyl)-1H-pyrazol-4-yl)-1H-indol-3-yl)acetamide] | 0.2 to 1
26 | Cn1cnc(C(=O)Nc2c[nH]c3ccc(-c4cnn(-c5ccc(C(F)(F)F)cc5)c4)cc23)c1 [Compound 281, 1-methyl-N-(5-(1-(4-(trifluoromethyl)phenyl)-1H-pyrazol-4-yl)-1H-indol-3-yl)-1H-imidazole-4-carboxamide] | 1 to 5
27 | CCC(=O)Nc1c[nH]c2ccc(-c3cnn(Cc4cccc(C(F)(F)F)c4)c3)cc12 [Compound 127, N-(5-(1-(3-(trifluoromethyl)benzyl)-1H-pyrazol-4-yl)-1H-indol-3-yl)propionamide] | 0.2 to 1
28 | O=C(Nc1c[nH]c2ccc(-c3cnn(-c4ccc(C(F)(F)F)cc4)c3)cc12)c1ccno1 [Compound 262, N-(5-(1-(4-(trifluoromethyl)phenyl)-1H-pyrazol-4-yl)-1H-indol-3-yl)isoxazole-5-carboxamide] | 0.2 to 1
29 | Cn1ccc(C(=O)Nc2c[nH]c3ccc(-c4cnn(-c5ccc(C(F)(F)F)cc5)c4)cc23)n1 [Compound 276, 1-methyl-N-(5-(1-(4-(trifluoromethyl)phenyl)-1H-pyrazol-4-yl)-1H-indol-3-yl)-1H-pyrazole-3-carboxamide] | 0.2 to 1
30 | Cn1cc(C(=O)Nc2c[nH]c3ccc(-c4cnn(-c5ccc(C(F)(F)F)cc5)c4)cc23)cn1 [Compound 278, 1-methyl-N-(5-(1-(4-(trifluoromethyl)phenyl)-1H-pyrazol-4-yl)-1H-indol-3-yl)-1H-pyrazole-4-carboxamide] | 0.2 to 1
31 | CC(NS(C)(=O)=O)C(=O)Nc1c[nH]c2cc(F)c(-c3cnn(-c4ccc(C(F)(F)F)cc4)c3)cc12 (stereo not shown) [Compound 193, N-(6-fluoro-5-(1-(4-(trifluoromethyl)phenyl)-1H-pyrazol-4-yl)-1H-indol-3-yl)-2-(methylsulfonamido)propanamide] | 1 to 5
